This is an account of results in PubChem BioAssay (NCI).

Several values for one entry are separate records, joined by “and”; a condition that tells them apart may be missing. Equal entries are not always repeated.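 Briefly, cells in 96-well plates were exposed to five compound concentrations for 48 h, and endpoints were estimated by linear interpolation. Here, GI50 denotes the concentration required for 50% inhibition of growth. TGI: total growth inhibition.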

Test in all cases: NCI tumour cell line growth inhibition, 48 h
Assay [1] relates to HOP-18 NSCLC.
Assay [2] relates to XF 498 CNS.
Assay [3] concerns KM20L2 colon.
The test system of assay [4] is DMS 273 small cell lung.
Assay [5] concerns LXFL 529 NSCLC.
Assay [6] deals with RXF-631 renal.
The subject of assay [7] is DMS 114 small cell lung.
Assay [8] concerns M19-MEL melanoma.
The test system of assay [9] is MDA-N.
Assay [10] has as its system P388 leukemia.
Assay [11] deals with SN12K1 renal.
Assay [12] has as its system P388/ADR leukemia.

For `COC1OC(COCc2ccc(Cl)cc2)C(OCc2ccc(Cl)cc2)C1O` (stereo not drawn), the TGI in [1] came out at 25.7 µM; in assay [2], 16 µM; in [3], 31.9 µM; in assay [4], 31.7 µM; in assay [5] it was 43.3 µM; in assay [6] it was 34.6 µM. Besides, the figures for the TGI in assay [7] and in assay [8] were 32.8 µM and 35.9 µM, respectively.
Turning to `COC(=O)C1C(=O)O[C@@H](c2ccc(OC)cc2)C1C(=O)OC` (stereo partly drawn), the TGI in assay [1], in assay [2], in assay [3], in [4], in [5] and in [7] was over 100 µM each time. Besides, the TGI in [8] was over 100 µM.
As for `Oc1c(Cl)cc(C(c2cc(Cl)c(O)c(Cl)c2)C(c2cc(Cl)c(O)c(Cl)c2)c2cc(Cl)c(O)c(Cl)c2)cc1Cl`, in [9], the GI50 is 4.07 µM and the TGI worked out at 19 µM.
For `O=C1C(=O)c2ccccc2C=C1[N+](=O)[O-]`, the TGI in assay [9] is 39.2 µM.
`c1ccc2c(c1)nnn1c3cnccc3nc21`: the TGI was over 100 µM in assay [1]; over 100 µM in assay [3]; 36 µM in assay [4]; over 100 µM in assay [5]; 69.5 µM in [7]; over 100 µM in assay [8].
In [9], `Oc1ccc(Cl)cc1Cc1cc(Cl)cc(Cc2cc(Cl)ccc2O)c1O` gave a TGI of 8.31 µM.
The same measure, in the same setting: under `O=C(O)c1ccc([N+](=O)[O-])c(P(=O)(O)O)c1` stands over 100 µM.
Turning to `CCCCCCCCC(=O)CCCCCCCCC(=O)O`, the TGI was 49.4 µM in assay [1]; over 100 µM in [2]; 67.8 µM in [3]; 75.7 µM in assay [4]; 67.5 µM in [5]; 44.1 µM in assay [6]. Besides, the figures for the TGI in [7] and in [8] were 64.4 µM and over 100 µM, respectively.
On to `CCN(CC)CC(O)CNc1ccc(NCC(O)CCl)c2c1C(=O)c1ccccc1C2=O` (stereo not drawn), for which the TGI turned out to be 19.7 µM in [9]; 26.9 µM in assay [2]; 18.5 µM in assay [3]; 13.6 µM in [4]; 15.8 µM in assay [5]; 22.1 µM in assay [8].
Turning to `COc1ccccc1/C=C1\CCC(CN(C)C)C1=O` (stereo not drawn), the TGI in assay [10] is 2.83 µM; in [9], 26 µM; in [1] it was over 53.1 µM; in assay [2], 32.6 µM; in [3] it was 16.4 µM; in assay [4], 20.5 µM. Besides, the TGI in [11] came out at 4.4 µM; in assay [7] it was 7.58 µM; in assay [8] it was 7.46 µM; in [12], 2.75 µM.
The compound `CCOC(=O)CC(=O)N(c1ccc(OC)cc1)C(C(=O)OC)c1ccccc1` (stereo not drawn) registered a TGI in assay [9] of over 100 µM.
Take `S=C1CNC(=S)CN1`: the TGI in [1], in [3], in [4], in assay [5], in assay [6] and in assay [7] was over 100 µM each time. Besides, in assay [8], the TGI is over 100 µM.
For the compound `Cc1ccc(NC(=O)C2C(=O)C(=O)N(c3ccc(C)cc3)C2=O)cc1` (stereo not drawn), the TGI in assay [1], in assay [3], in assay [5], in assay [7] and in assay [8] was over 100 µM each time.
For the compound `CCC[CH2][Sn]([CH2]CCC)([O]C(=O)c1cc(OC)c(OC)c(OC)c1)[O]C(=O)c1cc(OC)c(OC)c(OC)c1`, the GI50 was 1.8 µM in [3]; 1.35 µM in assay [4]; 0.215 µM in [5]; 0.53 µM in assay [6]; 0.404 µM in [7]; 0.749 µM in assay [8]. Besides, the TGI in [3] was found to be 3.3 µM; in assay [4], 2.95 µM; in assay [5] it was 0.536 µM; in [6], 1.83 µM; in assay [7] it was 1.54 µM; in assay [8], 2.02 µM.
With `Cc1cc(=O)[nH]c(CNC(=O)c2cccc3ccccc23)n1`, the TGI in [2], in assay [3], in [4], in [5] and in assay [8] was over 100 µM in each case.
On to `Nc1ccn(C2OC(CO[P+](=O)OC3C(CO[P+](=O)OC4C(CO[P+](=O)OC5C(CO[P+](=O)OC6C(CO[P+](=O)OC7C(CO[P+](=O)OC8C(CO[P+](=O)OC9C(CO[P+](=O)OC%10C(CO[P+](=O)OC%11C(CO)OC(n%12ccc(N)nc%12=O)C%11(F)F)OC(n%11ccc(N)nc%11=O)C%10(F)F)OC(n%10ccc(N)nc%10=O)C9(F)F)OC(n9ccc(N)nc9=O)C8(F)F)OC(n8ccc(N)nc8=O)C7(F)F)OC(n7ccc(N)nc7=O)C6(F)F)OC(n6ccc(N)nc6=O)C5(F)F)OC(n5ccc(N)nc5=O)C4(F)F)OC(n4ccc(N)nc4=O)C3(F)F)C(O)C2(F)F)c(=O)n1` (stereo not drawn), for which, in assay [9], the TGI was over 100 µM.
As for `COC(=O)C(=C\Sc1ccccc1)/C=C/C(=O)OC(C)(C)C`, the TGI in assay [1] amounted to 30 µM; in assay [2], 28.3 µM; in assay [3], 31.1 µM; in [4] it was 24.5 µM; in assay [5], 13.5 µM; in [7] it was 25.8 µM. Moreover, in assay [8], the TGI came to 23.9 µM.
On to `NC(Cc1cc(Br)c(O)c(Br)c1)C(=O)O` (stereo not drawn), for which the TGI in assay [9] was over 100 µM.
Consider `O=C1C(CN(Cc2ccccc2)Cc2ccccc2)CCCC1CN(Cc1ccccc1)Cc1ccccc1` (stereo not drawn), for which the TGI is over 100 µM in assay [9]; 11.8 µM and > 100 µM in assay [1]; 28.4 µM in assay [2]; 35.6 µM and > 100 µM in assay [3]; 33.3 µM and > 100 µM in assay [4]; over 100 µM in assay [6]. For the same compound, the TGI in [7] is 10.3 µM and > 100 µM; in assay [8], 18.7 µM and > 100 µM. In addition, the GI50 is 5.67 µM and 48.5 µM in assay [1]; 17.6 µM and > 100 µM in [3]; 17.1 µM and > 100 µM in [4].
For `Cc1cc(NC(=O)NC(=O)c2ccccc2[N+](=O)[O-])ccc1Oc1ncc(Cl)cn1`, the TGI was found to be 29.5 µM in assay [9]; 91.1 µM in [1]; 17.9 µM in assay [2]; 0.44 µM in assay [3]; 0.365 µM in assay [4]; 24.3 µM in assay [5]. The TGI in assay [7] and in [8] was over 100 µM in each case.
